Test results from PubChem BioAssay AID1919004 (Molecular Pharmacology Branch, DTP, NCI, 2023).
Values joined by “and” are separate entries in the source; they are usually repeats but may differ in a detail not shown here. Identical values can stand only once.

Test system: 883617-216-R-J1-PDC complex spheroids, growth, % test/control
Experiment: Anticancer human tumor 883617-216-R-J1-PDC patient-derived bladder carcinoma cell line growth inhibition [AhR]
Conditions: for viability, T/C: stronger effect = lower value
How it was run: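 Complex tumor spheroids co-cultured with HUVEC and human MSC stroma; AhR antagonists tested in combination with standard-of-care and investigational agents. Top concentration at or near clinical Cmax (else 10 microM), half-log dilutions; growth expressed as percent test/control.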

[1] = curve of first compound, second compound 0.1 µM
[2] = curve of first compound, second compound 0.316 µM
[3] = curve of first compound, second compound 1 µM
[4] = curve of first compound, second compound 3.16 µM
[5] = curve of first compound, second compound 10 µM
[6] = second compound 0.1 µM, first compound 0.0316 µM
[7] = second compound 0.1 µM, first compound 0.1 µM
[8] = second compound 0.1 µM, first compound 0.316 µM
[9] = second compound 0.1 µM, first compound 1 µM
[10] = second compound 0.1 µM, first compound 3.16 µM
[11] = second compound 0.1 µM, first compound 10 µM
[12] = second compound 0.316 µM, first compound 0.0316 µM
[13] = second compound 0.316 µM, first compound 0.1 µM
[14] = second compound 0.316 µM, first compound 0.316 µM
[15] = second compound 0.316 µM, first compound 1 µM
[16] = second compound 0.316 µM, first compound 3.16 µM
[17] = second compound 0.316 µM, first compound 10 µM
[18] = second compound 1 µM, first compound 0.0316 µM
[19] = second compound 1 µM, first compound 0.1 µM
[20] = second compound 1 µM, first compound 0.316 µM
[21] = second compound 1 µM, first compound 1 µM
[22] = second compound 1 µM, first compound 3.16 µM
[23] = second compound 1 µM, first compound 10 µM
[24] = second compound 3.16 µM, first compound 0.0316 µM
[25] = second compound 3.16 µM, first compound 0.1 µM
[26] = second compound 3.16 µM, first compound 0.316 µM
[27] = second compound 3.16 µM, first compound 1 µM
[28] = second compound 3.16 µM, first compound 3.16 µM
[29] = second compound 3.16 µM, first compound 10 µM
[30] = second compound 10 µM, first compound 0.0316 µM
[31] = second compound 10 µM, first compound 0.1 µM
[32] = second compound 10 µM, first compound 0.316 µM
[33] = second compound 10 µM, first compound 1 µM
[34] = second compound 10 µM, first compound 3.16 µM
[35] = second compound 10 µM, first compound 10 µM
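Further: exposure lasted 7 days after dosing on day 3 of spheroid growth.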

| IC50 [1] | IC50 [2] | IC50 [3] | IC50 [4] | IC50 [5] | SMILES | viability, T/C [6] | viability, T/C [7] | viability, T/C [8] | viability, T/C [9] | viability, T/C [10] | viability, T/C [11] | viability, T/C [12] | viability, T/C [13] | viability, T/C [14] | viability, T/C [15] | viability, T/C [16] | viability, T/C [17] | viability, T/C [18] | viability, T/C [19] | viability, T/C [20] | other results |
| --- | --- | --- | --- | --- | --- | --- | --- | --- | --- | --- | --- | --- | --- | --- | --- | --- | --- | --- | --- | --- | --- |
| < 31.6 nM | < 31.6 nM | < 31.6 nM | < 31.6 nM | < 31.6 nM | Nc1ccn(C2OC(CO)C(O)C2(F)F)c(=O)n1 (centres undefined) + Cc1ccccc1N=Nc1ccc(NC(=O)c2ccnn2C)c(C)c1 | 27.8% | 26.8% | 35.4% | 32.4% | 30.2% | 32.2% | 25.1% | 26.1% | 32.5% | 33.5% | 35.2% | 37.5% | 28.6% | 22.8% | 31.5% | viability, T/C [21]: 36%; viability, T/C [22]: 34.2%; viability, T/C [23]: 31.7%; viability, T/C [24]: 26.1%; viability, T/C [25]: 22.3%; viability, T/C [26]: 31%; viability, T/C [27]: 31.3%; viability, T/C [28]: 37.3%; viability, T/C [29]: 32.4%; viability, T/C [30]: 36.3%; viability, T/C [31]: 27.8%; viability, T/C [32]: 29.4%; viability, T/C [33]: 34.5%; viability, T/C [34]: 31.1%; viability, T/C [35]: 32.4% |
| > 10000 nM | > 10000 nM | > 10000 nM | > 10000 nM | > 10000 nM | O=C(c1cc(Cc2n[nH]c(=O)c3ccccc23)ccc1F)N1CCN(C(=O)C2CC2)CC1 + Cc1cncc(-c2nc(NCCc3c[nH]c4ccccc34)c3ncn(C(C)C)c3n2)c1 | 81.1% | 89.9% | 76.4% | 79.5% | 70.8% | 83.7% | 93.5% | 86.9% | 79.1% | 78.9% | 77.9% | 71.7% | 90% | 90.9% | 91% | viability, T/C [21]: 78.9%; viability, T/C [22]: 87%; viability, T/C [23]: 80%; viability, T/C [24]: 99.9%; viability, T/C [25]: 94.8%; viability, T/C [26]: 98.4%; viability, T/C [27]: 89.6%; viability, T/C [28]: 101%; viability, T/C [29]: 71.9%; viability, T/C [30]: 53.8%; viability, T/C [31]: 54.9%; viability, T/C [32]: 50.4%; viability, T/C [33]: 49.6%; viability, T/C [34]: 49.3%; viability, T/C [35]: 54.4% |
| – | – | – | – | – | CCc1c2c(nc3ccc(O)cc13)-c1cc3c(c(=O)n1C2)COC(=O)[C@]3(O)CC | – | – | – | – | – | – | – | – | – | – | – | – | – | – | – | viability, T/C (compound 0.000949 µM): 88.9% and 98.2% and 69%; viability, T/C (compound 0.003 µM): 82.4% and 85.1% and 111%; viability, T/C (compound 0.00949 µM): 72.4% and 70.3% and 75.6%; viability, T/C (compound 0.03 µM): 79.9% and 64.4% and 83.5%; viability, T/C (compound 0.0949 µM): 68.2% and 57.1% and 75.1%; viability, T/C (compound 0.3 µM): 44.6% and 41% and 84.5%; IC50 (curve of compound): 234 nM and 137 nM and > 300 nM |
| – | – | – | – | – | Nc1ccccc1NC(=O)c1ccc(CNC(=O)OCc2cccnc2)cc1 | – | – | – | – | – | – | – | – | – | – | – | – | – | – | – | viability, T/C (compound 0.0316 µM): 96.9% and 100% and 89.9%; viability, T/C (compound 0.1 µM): 102% and 111% and 88.5%; viability, T/C (compound 0.316 µM): 86.1% and 82.7% and 81.7%; viability, T/C (compound 1 µM): 52.8% and 62.3% and 78.8%; viability, T/C (compound 3.16 µM): 20% and 24.2% and 63.7%; viability, T/C (compound 10 µM): 0.83% and 1.59% and 18.8%; IC50 (curve of compound): 1150 nM and 1390 nM and 4400 nM |
| > 10000 nM | > 10000 nM | > 10000 nM | > 10000 nM | > 10000 nM | CC1(C)CCC(CN2CCN(c3ccc(C(=O)NS(=O)(=O)c4ccc(NCC5CCOCC5)c([N+](=O)[O-])c4)c(Oc4cnc5[nH]ccc5c4)c3)CC2)=C(c2ccc(Cl)cc2)C1 + Cc1ccccc1N=Nc1ccc(NC(=O)c2ccnn2C)c(C)c1 | 97.5% | 90.6% | 97% | 99.9% | 88.5% | 61.4% | 95.5% | 85.9% | 88.9% | 85.3% | 83.9% | 54.9% | 97.8% | 85.4% | 82.5% | viability, T/C [21]: 80.2%; viability, T/C [22]: 79.7%; viability, T/C [23]: 67.1%; viability, T/C [24]: 85.7%; viability, T/C [25]: 82.6%; viability, T/C [26]: 87.4%; viability, T/C [27]: 84.8%; viability, T/C [28]: 76.5%; viability, T/C [29]: 57%; viability, T/C [30]: 81.9%; viability, T/C [31]: 85.1%; viability, T/C [32]: 82%; viability, T/C [33]: 77%; viability, T/C [34]: 74%; viability, T/C [35]: 54.7% |
